Test results: patent US9073880B2, “2-(2-phenylethenyl) 1,3-benzodiazepine derivatives useful for the treatment of cancer” (Yissum Research Development Company of the Hebrew …, priority 2010, dated 2015)
pIC50: −log10 of the molar value.

Key:
[1] = test system: human colon carcinoma HCT15 cells; assay: Cell proliferation, HCT15 (Example 2); format: cell-based; details: HCT-15, 72 hours, 0.1% DMSO, methylene blue
Protocol: (§1) Human ovary cancer A2780 cells lines were seeded at a density of 5000 cells/well, human melanoma A375 cells were plated at a density of 2,500 cells/well, human colon carcinoma HCT15 cells were plated at a density of 3,000 cells/well, human prostate carcinoma PC3 cells were plated at a density of 1,500 cells/well, human breast carcinoma MCF7 cells were plated at a density of 5,000 cells/well, human breast carcinoma MDA MB 468 cells were plated at a density of 6,000 cells/well, human myeloma U266, RPMI8226 and CAG cells were plated at a density of 10,000 cells/well. All cells were plated in 96-well plates in 90 μl growth medium containing 10% FCS, 100 units/ml penicillin and 100 μg/ml streptomycin. Compound 3 was added a day later in […] of 1% DMSO in DDW to obtain final concentrations of 0, 0.1, 0.3, 1, 3, and 10 μM. The final concentration of DMSO (0.1% DMSO) was kept constant in all samples. […] The optical density values were read at 630 nm in ELISA plate reader. Non-adhered cells were exposed to WST-1 reagent for 5 hours following 72 hours treatment with the inhibitors, and optical density values were read at 630 nm in ELISA plate reader. The data was analyzed in Microsoft Excel, using the vehicle control as 100% proliferation. […]

[2] = test system: human osteosarcoma Saos-2 cells; assay: Cell proliferation, Saos-2 (Example 4); format: cell-based; details: Saos-2, osteosarcoma, compound in 2-hydroxypropyl-β-cyclodextrin
Protocol: (§2) Human ovary cancer A2780 cells lines were seeded at a density of 5000 cells/well, human melanoma A375 cells were plated at a density of 2,500 cells/well, human colon carcinoma HCT15 cells were plated at a density of 3,000 cells/well, human prostate carcinoma PC3 cells were plated at a density of 1,500 cells/well, human breast carcinoma MCF7 cells were plated at a density of 5,000 cells/well, human breast carcinoma MDA MB 468 cells were plated at a density of 6,000 cells/well, human myeloma U266, RPMI8226 and CAG cells were plated at a density of 10,000 cells/well. All cells were plated in 96-well plates in 90 μl growth medium containing 10% FCS, 100 units/ml penicillin and 100 μg/ml streptomycin. Compound 3 was added a day later in […] of 1% DMSO in DDW to obtain final concentrations of 0, 0.1, 0.3, 1, 3, and 10 μM. The final concentration of DMSO (0.1% DMSO) was kept constant in all samples. Following exposure of the cells to compound 3 for 72 hours at 37° C., adhered cells were fixed in 0.5% gluteraldehyde in medium for 10 min, washed three times with DDW, once with 0.1M sodium borate buffer pH 8.5 and stained with 1% methylene blue dissolved in 0.1M borate buffer solution for 60 min. Excess dye was washed out and cell-bound dye was eluted with 200 μl/well of 0.1M HCl. The optical density values were read at 630 nm in ELISA plate reader. Non-adhered cells were exposed to WST-1 reagent for 5 hours following 72 hours treatment with the inhibitors, and optical density values were read at 630 nm in ELISA plate reader. The data was analyzed in Microsoft Excel, using the vehicle control as 100% proliferation. The assays were performed in triplicates. The values of IC50 were derived from the dose-dependent growth curves obtained.
(§3) Cell proliferation assay was performed as described in Example 2. […]

[3] = test system: PKB; assay: IGF1-induced PKB activation in MCF7 cells (western blot); format: cell-based, human; details: 10 μM, 48 hr, 50 ng/ml IGF-1 5 minutes, FIG. 3
Protocol: (§4) Tyrosine autophosphorylation of the β-subunit of IGF-1R as well as downstream signaling induced by IGF-1R were assayed in human breast cancer MCF7 cells and in melanoma A375 cells. Cells were seeded in 6-well plates (250,000 A375 cells/well and 300,000 MCF7 cells/well) and 24 hours later medium was replaced by serum-free medium (RPMI supplemented with 100 units/ml penicillin and 100 μg/ml streptomycin). MCF7 cells were exposed for 48 hr to compound 3 at 10 μM concentration, and then stimulated for 5 minutes with 50 ng/ml IGF-1, washed twice with PBS and lysed by boiling sample buffer (10% glycerol, 50 mM Tris-HCl, pH 6.8, 3% SDS, and 5% (3-mercaptoethanol). Equal amounts of protein per lane were separated by 8% SDS-PAGE and transferred to a nitrocellulose membrane (Sartorius AG). Phosphorylated proteins were immunoblotted with anti-phosphoIGF-1R (pIGF-1R), anti-phosphotyrosine-IRS1 (pY-IRS I) and anti-phospho(T308)Akt (pPKB) antibodies. Detection was performed with horseradish peroxidase-conjugated secondary antibody using the ECL system. Blots were then stripped of antibodies, blocked with TBST with 5% low fat milk and re-probed with antibodies detecting both the phosphorylated and the non-phosphorylated corresponding proteins e.g. IGF-1Rβ, IRS1 and PKB.

[4] = test system: human pancreatic cancer ASPC cells; assay: Cell proliferation, ASPC (Example 4); format: cell-based; details: compound in 2-hydroxypropyl-β-cyclodextrin
Protocol: as §2
Cell proliferation assay was performed as described in Example 2. The following cell line were plated in 96-well plates in 90 μl growth medium containing 10% FCS, 100 units/ml penicillin and 100 μg/ml streptomycin: human ovary cancer A2780 cells (4500 cells/well), human melanoma A375 (1500 cells/well) and YUMAC (2500 cells/well) cells, human colon carcinoma HCT15 (3000 cells/well) and HCT116 (2000 cells/well) cells, human prostate carcinoma PC3 (3000 cells/well), PC3MM2 (3500 cells/well) and DU145 (300 cells/well) cells, human hepatocarcinoma HepG2 (3000 cells/well), human Ewing sarcoma SK-ES-1 (4,500 cells/well), human glioblastoma U138MG (2,000 cells/well), human breast cancer T47D (4000 cells/well) and MDA-MB-468 (6000 cells/well) cells, human small cell lung carcinoma NCI-H1975 (5000 cells/well) cells, human osteosarcoma Saos-2 (5000 cells/well) cells, human pancreatic cancer ASPC (2500 cells/well) cells, human bladder carcinoma T24P (1000 cells/well) cells, human gastric cancer NCI-N87 (5000 cells/well) cells, human lymphoma KARPAS (5,000 cells/well) cells, human leukemia K562 (5,000 cells/well) cells and human multiple myeloma MM1S (10,000 cells/well), U266 (10,000 cells/well) and CAG (5,000 cells/well). Compounds 2-5 and 7-8 were added a day later in 10 μl of 0.7% 2-hydroxypropyl-β-cyclodextrin to obtain final concentrations of 0, 0.1, 0.3, 1, 3 and 10 μM.
Compounds 2-5 and 7-8 of the present invention were tested for their inhibitory potential in cell proliferation assay. […]

[5] = test system: human melanoma A375 cells; assay: Cell proliferation, A375 (Example 2); format: cell-based; details: A-375, 72 hours, 0.1% DMSO, methylene blue
Protocol: as §1

[6] = test system: human multiple myeloma U266 cells; assay: Cell proliferation, U266 (Example 4); format: cell-based; details: U-266, compound in 2-hydroxypropyl-β-cyclodextrin
Protocol: as §1

[7] = test system: human prostate carcinoma PC3 cells; assay: Cell proliferation, PC3 (Example 4); format: cell-based; details: PC-3, PC3, prostate cancer, compound in 2-hydroxypropyl-β-cyclodextrin
Protocol: as §1

[8] = test system: human multiple myeloma CAG cells; assay: Cell proliferation, CAG (Example 4); format: cell-based; details: compound in 2-hydroxypropyl-β-cyclodextrin
Protocol: as §2, §3

[9] = test system: IRS1; assay: IRS1 levels and serine phosphorylation in MCF7 cells (western blot, time course); format: cell-based, human; details: 10 μM
Protocol: as §4, with “PKB. […]” for “PKB.”

Row | Structure (SMILES) | pIC50 [1] | pIC50 [2] | IGF1-induced activation of the downstream signaling component PKB [3] | pIC50 [4] | pIC50 [5] | pIC50 [6] | pIC50 [7] | pIC50 [8] | levels of IRS1 ([9]; 48 hr, FIG. 3) | time course of effect on IRS1 phosphorylation and levels ([9]; various time periods, FIG. 5)
1 | O=c1c(O)cc2cnc(/C=C/c3cc(O)c(O)c(Br)c3)sc-2c1O [Compound 3] | 6.00 | 5.51 | significantly inhibited | 4.88 | 6.00 | 6.15 | 6.15 | 6.05 | significant decrease | elimination of IRS1 induced by compound 3 is subsequent to IRS1 serine phosphorylation
2 | O=c1c(O)cc2cnc(/C=C/c3ccc(O)c(O)c3Br)sc-2c1O [Compound 5] |  | 5.55 |  | 5.09 |  |  |  | 6.15 |  | 
